# Assay results: US12544392B2, “Treatment of adenovirus infection or disease associated with adenovirus infection” (SymBio Pharmaceuticals Limited, priority 2023, dated 2026)
# “Also recorded” adds a separate entry of the source.
# How the values were obtained:
# adenovirus (AdV) [1] = test: Human clinical study on treatment of AdV infectious disease: viral load of AdV in plasma by real-time qPCR; format: in vivo; settings: for time for the levels of viral load to reach below the LOD: overall
# Procedure: A human clinical study on the treatment of adenovirus (AdV) infectious disease was conducted according to the following procedure.
# Patients aged 2 months or older who have asymptomatic AdV infection or AdV disease, have an underlying immunocompromised state, and have AdV viremia at a high level, including hematopoietic stem cell transplant recipients before the immune reconstitution by the graft cells is achieved, organ transplant recipients on medication with an immunosuppressant, and patients with immunodeficiency syndrome (patients with 10,000 or more copies/ml in a sample, or patients with 1,000 or more copies/ml in two samples while the second viral load is greater than the first viral load).
# The brincidofovir (BCV) infusion is a sterile aqueous solution containing 10 mg/mL BCV.
# • Product name: Brincidofovir (BCV) • Dosage form: Solution for infusion • Unit dose: 10 mg/mL (1 mL per vial) • Route of administration: Intravenous (IV) infusion • Physical description: Clear, colorless solution in a sterile glass vial • Storage: Refrigerated (2-8° C.) • Dosing: Continuous IV drip infusion administered over a period of 2 hours twice weekly (on Days 1 and 4) 1.1.3 Dose • Cohort 1:0.2 mg/kg (if body weight≥50 kg, 10 mg/dose), twice weekly • Cohort 2:0.3 mg/kg (if body weight≥50 kg, 15 mg/dose), twice weekly • Cohort 3:0.4 mg/kg (if body weight≥50 kg, 20 mg/dose), twice weekly 1.1.4 Drug Administration
# The dose of BCV 10 mg/mL solution for infusion is prepared based on the patient's body weight.
# Preparation: Using a sterile syringe and needle, transfer 1 mL of IV BCV solution from one vial into a 100-mL glucose 5% IV bag to make a diluted dosing solution. For more than 10 mg/dose, prepare one additional diluted dosing solution in the same procedure mentioned above. Gently invert the bag at least 5 times to mix. Note: No vigorous shaking of the solution in a vial or the diluted dosing solution in a bag.
# Administer the appropriate volume of diluted dosing solution based on the patient's body weight. Each dose is administered intravenously at a constant rate over 2 hours. Upon completion of the administration, the IV line is flushed with glucose 5% or dextrose 5% to ensure the IV line has been cleared of all active drug. If required per institutional practice, the flush of glucose 5% or dextrose 5% may be followed by a flush with normal saline. Diluted dosing solution should be prepared at the time of use in principle and should not be prepared the day before.
# Subjects 101-12 of cohort 2, and 101-15, 101-18 and 110-06 of cohort 3 took cyclosporine, an immunosuppressive drug, during the treatment period (duration of treatment) of intravenous BCV. Prior PK studies in healthy subjects have shown a significant increase in plasma BCV exposure with concomitant intravenous infusion of BCV and cyclosporine. […] In view of the above, for the above patients taking cyclosporine, any of the doses indicated in 1.1.3 (cohorts 1-3) above is reduced to 60% for administration. Note that when cyclosporine is administered as BID (twice daily) oral or injectable form, the administration is conducted with an interval of 2 hours after the completion of intravenous BCV. In the case of continuous infusion of cyclosporine for 24 hours, no interval is needed.
# The study duration is at least 9 weeks, based on a screening period of 1 week, a treatment period of at least 4 weeks, and post-treatment follow-up period of 30 days. In the screening, after informed consent has been obtained from the patients, a screening evaluation is conducted to determine eligibility for the study. On the first day of the first week of the treatment period, patients are assigned a dose based on the applicable cohort (see the section 1.1.3 Cohorts 1-3 above). The duration of treatment is a minimum of 4 weeks and a maximum of 14 weeks, and termination is based on the treatment stopping criteria as described below. […]
# [2] = Human clinical study: BCV-related adverse events (NCI CTCAE version 5.0); format: in vivo
# Procedure: The study duration is at least 9 weeks, based on a screening period of 1 week, a treatment period of at least 4 weeks, and post-treatment follow-up period of 30 days. In the screening, after informed consent has been obtained from the patients, a screening evaluation is conducted to determine eligibility for the study. On the first day of the first week of the treatment period, patients are assigned a dose based on the applicable cohort (see the section 1.1.3 Cohorts 1-3 above). The duration of treatment is a minimum of 4 weeks and a maximum of 14 weeks, and termination is based on the treatment stopping criteria as described below. For patients who, at the physician's discretion, are assessed as being at high risk for AdV infection/recurrence of disease, the treatment period may be extended for up to 10 weeks, even after the 4-week treatment period is completed, if the AdV is not detected by the two most recent consecutive assays with an interval of 3 days at least. All patients are followed up for 30 days after the last dosing. Adverse events is evaluated according to the National Cancer Institute Common Terminology Criteria for Adverse Events (NCI CTCAE) version 5.0 (grade 1-5). Based on the results of the review of safety data from cohort 1, a decision is made whether to initiate cohort 2. Likewise, the decision to initiate cohort 3 is based on the results of the review of safety data from cohort 2. Enrollment in a new cohort is terminated immediately if grade 3 or higher adverse events are observed in more than 25% of all subjects in the previous cohort.
# adenovirus (AdV) [3] = test: Analysis of AdV content in stool of patients by quantitative PCR; format: in vivo, human; settings: for patients in whom AdV content in stool was reduced to ND during the study period: ND = not detected
# From the text: In the clinical study of Example 1, the AdV contents in the stools of patients were examined. […] In the figure, D means detected, ND means not detected, and NP means not performed. A quantitative PCR method was used to analyze AdV contents.
# [4] = cohort 1: 0.2 mg/kg IV twice weekly
# [5] = cohort 2: 0.3 mg/kg IV twice weekly
# [6] = cohort 3: 0.4 mg/kg IV twice weekly
# [7] = cohort 3: 0.4 mg/kg IV twice weekly, of 10 cases
smiles,measurement,setting,value
"CCCCCCCCCCCCCCCCOCCCOP(=O)(O)CO[C@H](CO)Cn1ccc(N)nc1=O [BCV, [(2S)-1-(4-amino-2-oxopyrimidin-1-yl)-3-hydroxypropan-2-yl]oxymethyl-(3-hexadecoxypropoxy)phosphinic acid]",patients in whom the levels of viral load of AdV reached below the LOD,"adenovirus (AdV) [1]; cohort 1: 0.2 mg/kg (10 mg/dose if body weight ≥50 kg) IV twice weekly, plasma, LOD 25 copies/ml",two
same,cases with relapse among those that reached below the LOD,adenovirus (AdV) [1]; [4],One
same,patients who died,adenovirus (AdV) [1]; [4],one
same,patients in whom the levels of viral load of AdV reached below the LOD,"adenovirus (AdV) [1]; cohort 2: 0.3 mg/kg (15 mg/dose if body weight ≥50 kg) IV twice weekly, plasma, LOD 25 copies/ml",5 patients
same,patients who died,adenovirus (AdV) [1]; [5],one
same,time for the levels of viral load to reach below the LOD,"adenovirus (AdV) [1]; cohort 2: 0.3 mg/kg IV twice weekly, the 5 cases",longer time
same,cases in which the levels of viral load of AdV reached below the LOD,"adenovirus (AdV) [1]; cohort 3: 0.4 mg/kg (20 mg/dose if body weight ≥50 kg) IV twice weekly, plasma, LOD 25 copies/ml, all cases",10 cases
same,relapse or death,adenovirus (AdV) [1]; [6],No patient relapsed or died
same,patients whose levels of viral load reached below the LOD within 4 weeks,adenovirus (AdV) [1]; [7],8 patients
same,remaining patients whose levels of viral load reached below the LOD at Week 5 and 6,adenovirus (AdV) [1]; [7],2 patients
same,time for the levels of viral load to reach below the LOD,"adenovirus (AdV) [1]; cohort 3: 0.4 mg/kg IV twice weekly, the 10 cases",shorter time
same,time at which the viral load of AdV was reduced to a level below the LOD,adenovirus (AdV) [1]; patient 110-05 in cohort 3 (0.4 mg/kg IV twice weekly),3 Week
same,"BCV-related adverse event, grade (relatedness)","[2]; cohort 1 (0.2 mg/kg IV twice weekly), patient 109-01, 0.2 mg/kg",elevated aspartate transaminase (AST)—grade 1 (probably); also recorded: elevated alanine transaminase (ALT)—grade 1 (probably); also recorded: elevated lactate dehydrogenase (LDH)—grade 1 (possibly)
same,"BCV-related adverse event, grade (relatedness)","[2]; cohort 1 (0.2 mg/kg IV twice weekly), patient 110-01",diarrhea—grade 2 (possibly)
same,Grade 3 adverse events (number),[2]; [4],0
same,"BCV-related adverse event, grade (relatedness)","[2]; cohort 2 (0.3 mg/kg IV twice weekly), patient 101-09",diarrhea—grade 3 (possibly)
same,"BCV-related adverse event, grade (relatedness)","[2]; cohort 2 (0.3 mg/kg IV twice weekly), patient 101-14",hypertransaminasemia—grade 3 (possibly)
same,"BCV-related adverse event, grade (relatedness)","[2]; cohort 2 (0.3 mg/kg IV twice weekly), patient 109-03",nausea—grade 1 (possibly)
same,Grade 3 adverse events (number),[2]; [5],2
same,"BCV-related adverse event, grade (relatedness)","[2]; cohort 3 (0.4 mg/kg IV twice weekly), patient 102-02, 0.4 mg/kg",increased ALT—grade 3 (possibly); also recorded: increased AST—grade 3 (possibly)
same,"BCV-related adverse event, grade (relatedness)","[2]; cohort 3 (0.4 mg/kg IV twice weekly), patient 109-04, 0.4 mg/kg",feeling of a racing heart—grade 1 (possibly); also recorded: nausea—grade 1 (possibly)
same,Grade 3 adverse events (number),[2]; [6],1
same,patients in whom AdV content in stool was reduced to ND during the study period,adenovirus (AdV) [3]; [5],2 of 9
same,cases reduced to ND in which AdV was detected in stool in the following week,"adenovirus (AdV) [3]; cohort 2: 0.3 mg/kg IV twice weekly, of the two cases",one
same,patients in whom AdV content in stool was reduced to ND during the study period,adenovirus (AdV) [3]; [6],5 of 8
